Measurements: US20240199571A1, “THIOPHENE COMPOUND AND APPLICATION THEREOF” (MEDSHINE DISCOVERY INC., priority 2021, published 2024)
Where a name gives a salt, the structure may show the parent alone. Read-outs that look alike come from different tables or passages of the source.

Key:
[1] = biological target: T1, human LSD1 (Homo sapiens (Human), UniProt O60341); experiment: Experiment 1A: in vitro LSD1 enzyme activity, enzyme-coupled fluorescence (HRP/Amplex Red), H3K4me peptide 20 μM (Wuhan Heyan); format: biochemical; settings: histone H3K4me peptide 20 μM
Method: Experiment 1A: Evaluation of Enzyme Activity
Testing unit: Wuhan Heyan Biomedical Technology Co., Ltd.
The purpose of the assay was to test the in vitro inhibitory activity of the compounds against LSD1. The enzyme used in the assay was human LSD1, and the standard substrate was histone H3K4me peptide (20 μM). The activity of the compounds was determined by the enzyme-coupling fluorescent method by the combined detection of H2O2 generated after the reaction of LSD1 by horseradish peroxidase (HRP) and the fluorescent reagent Amplex Red. Starting from 10 μM, the compounds were 3-fold diluted to detect the IC50 values of the compounds at 10 concentrations. The enzyme and substrate were incubated for 30 minutes before the compound was added to the substrate to start the reaction. Fluorescence detector: EnVision, excitation wavelength: Ex/Em=530/590 nM.

[2] = system: NCI-H1417 cells; experiment: Experiment 2: inhibition of NCI-H1417 cell proliferation (CellTiter-Glo, 10 days); format: cell-based; settings: Homo sapiens, 240 h, 10 days incubation
Outline: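 Cells at 1000 per well exposed to 10-point 3-fold dilutions from 10 μM top concentration for 10 days. Viability by CellTiter-Glo luminescence; inhibition normalized to max/min controls, IC50 from four-parameter fit.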

[3] = Experiment 3: pharmacokinetic evaluation in CD-1 mice (IV and oral); format: in vivo; settings: mouse, plasma; for clearance / half-life / Vd: IV 1 mg/kg; for clearance: read-out: Clearance rate CL; for half-life: read-out: Half life T1/2 (IV, h) (converted); for Vd: read-out: Volume of distribution at steady state Vdss; for bioavailability: PO 2 mg/kg vs IV 1 mg/kg, read-out: Bioavailability F (%); for AUC(0-t): PO 2 mg/kg, read-out: Area under drug-time curve AUC0-last PO; for Cmax: single dose, oral 2 mg/kg, read-out: Peak concentration Cmax
Method: Experiment 3: Pharmacokinetic Evaluation of Compounds
Experimental purpose: To test the pharmacokinetics of compounds in CD-1 mice in vivo
CD-1 mice (male/female, 7 to 9 weeks old, Shanghai SLAC)
The pharmacokinetic characteristics of the compounds in rodents after intravenous injection and oral administration were tested according to the standard protocol. In the experiment, the candidate compound was formulated into clear solutions, and a single intravenous injection and oral administration were given to mice. The vehicle for intravenous injection and oral administration was a mixed vehicle composed of 10% dimethyl sulfoxide and 90% hydroxypropyl β-cyclodextrin with a content of 10%. In this project, four male/female CD-1 mice were used. Two mice were injected intravenously at a dose of 1 mg/kg, and plasma samples were collected at 0.083, 0.25, 0.5, 1, 2, 4, 8, and 24 hours after administration; the other two were administered orally by gavage at a dose of 2 mg/kg, and plasma samples were collected at 0.25, 0.5, 1, 2, 4, 8, and 24 hours after administration. The samples were centrifuged at 3200 g for 10 minutes at 4° C., and plasma samples were obtained by separating the supernatant. A methanol solution containing internal standard with 20 times the volume of the sample was added thereto to precipitate the protein, and the mixture was centrifuged at 12000 g for 15 minutes at 4° C. 50 μL of the supernatant was taken and transferred to a 96-well plate and centrifuged again. The supernatant was taken for sampling. The plasma concentration was quantitatively analyzed using LC-MS/MS analysis method, and pharmacokinetic parameters, such as peak concentration (Cmax), clearance rate (CL), half-life (T1/2), volume of distribution at steady state (Vdss), area under drug-time curve (AUC0-last), bioavailability (F).

[4] = biological target: T1, human LSD1; experiment: Experiment 1B: in vitro LSD1 enzyme activity, enzyme-coupled fluorescence (HRP/Amplex Red), H3(1-21)K4me2 peptide 10 μM (Reaction Biology); format: biochemical; settings: histone H3(1-21)K4me2 peptide 10 μM
Outline: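 Human LSD1 with 10 μM histone H3(1-21)K4me2 peptide; enzyme and substrate incubated 30 min before compound addition started the reaction. H2O2 detected via HRP/Amplex Red fluorescence (Ex/Em 535/590). IC50 from 10-point 3-fold dilutions starting at 10 μM.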

[5] = system: human small cell lung cancer NCI-H1417 cell subcutaneous xenograft tumor; experiment: Experiment 5: in vivo pharmacodynamic study, NCI-H1417 subcutaneous xenograft tumor in CB17-SCID mice; settings: 10 mg/kg, p.o.; for Mean tumor volume ± SEM (mm^3) (Day 28): day 28 after administration; for TGI (%): tumor volume at day 28
Description: Experiment 5: In Vivo Pharmacodynamic Study of Compounds on CB17-SCID Mouse Model of Human Small Cell Lung Cancer NCI-H1417 Cell Subcutaneous Xenograft Tumor
The purpose of this experiment was to evaluate the in vivo efficacy of the compounds of the present disclosure on CB17-SCID mouse model of human small cell lung cancer NCI-H1417 cell subcutaneous xenograft tumor.
5.2 Experimental Animals: • Species: mice • Strain: CB17-SCID mice • Week age and weight: 6-8 weeks old, 18 to 22 grams • Gender: Female • Supplier: Beijing Vital River Laboratory Animal Technology Co., Ltd.
Human lung cancer cells NCI-H1417 were cultured in vitro in suspension in RPMI 1640 medium with 10% fetal bovine serum, 100 U/mL penicillin, and 100 μg/mL streptomycin at 37° C. in a 5% CO2 cell culture incubator. Routine digestion and passage treatment were performed twice a week. When the number of cells reached the required number, the cells were counted and resuspended in PBS at a density of 10×10^6 cells/200 μL.
0.2 mL of NCI-H1417 tumor cells (containing 10×10^6 cells) suspension (PBS: matrix gel=1:1) was subcutaneously inoculated on the right back of mice, and in pharmacodynamic experiments, on the 16th day after cell inoculation, when the average tumor volume reached 86 mm^3, the subjects were randomly grouped and the administration started.
The experimental vehicle was 5% dimethyl sulfoxide/95% (10% Solutol) solution. Preparation method: 3.8 mL of […] was taken and added to 34.2 mL of double-distilled water, 2 mL of dimethyl sulfoxide was added thereto, and the mixture was mixed well. The test substance was dissolved with the vehicle, prepared as a homogeneous solution of a certain concentration, and stored at 4° C.
The experimental indicator was to examine whether tumor growth was inhibited, delayed, or cured. The tumor diameter was measured twice a week using vernier calipers. The calculation formula of tumor volume is V=0.5a×b^2, wherein a and b represent the long and short diameters of the tumor respectively.
The tumor inhibitory efficacy of compounds was evaluated by TGI (%). TGI (%) reflects the tumor growth inhibition rate. Calculation of TGI (%): TGI (%)=[1−(Average tumor volume at the end of administration in a certain treatment group−Average tumor volume at the beginning of administration in this treatment group)/(Average tumor volume at the end of treatment in the vehicle control group−Average tumor volume at the beginning of treatment in the vehicle control group)]×100%.

[6] = biological target: hERG potassium ion channels (Homo sapiens (Human), UniProt Q12809); experiment: Experiment 4: hERG potassium ion channel inhibition, automated patch clamp (Qpatch), CHO-hERG cells; format: cell-based; settings: highest test concentration 40 μM
Method: Experiment 4: hERG Potassium Ion Channel Inhibition Assay
Experimental purpose: To test the effects of the test examples on hERG potassium ion channels using an automated patch clamp method.
4.1.1 CHO-hERG cells were cultured in a 175 cm^2 culture flask. When the cell density grew from 60% to 80%, the culture medium was removed. The cells were washed once with 7 mL of PBS (Phosphate Buffered Saline), and then 3 mL of Detachin cell dissociation reagent was added thereto for digestion.
4.1.2 After the digestion was completed, 7 mL of culture medium was added thereto for neutralization, then the mixture was centrifuged, the supernatant was aspirated, and then 5 mL of culture medium was added thereto for resuspension to ensure a cell density of 2×10^6/mL to 5×10^6/ML.
The single-cell high-resistance sealing and whole-cell modeling formation processes were all automatically completed by the Qpatch instrument of the Shanghai Institute of Materia Medica, Chinese Academy of Sciences. After obtaining the whole-cell recording modeling, the cells were clamped at −80 mV, and before a 5-second +40 mV depolarizing stimulus was given, a 50-millisecond −50 mV prepulse was first given, then the voltage was repolarized to −50 mV and holden for 5 seconds, and finally returned to −80 mV. This voltage stimulus was applied every 15 seconds, recorded for 2 minutes, and then the extracellular fluid was recorded for 5 minutes, and then the administration process was initiated, with compound concentrations starting at the lowest test concentration. The voltage stimulus was given for 2.5 minutes for each test concentration, and after all concentrations had been continuously given, 3 μM the positive control compound, Cisapride, was given. At least 3 cells were tested per concentration (n≥3).
4.4.1 The compound stock solution was diluted with DMSO, and 20 μL of DMSO solution was added with 10 μL of the compound stock solution, and serially diluted 3-fold to 6 DMSO concentrations.
4.4.2 4 μL of 6 DMSO concentrations of compounds were taken respectively and added to 396 μL of extracellular fluid, and the mixture was diluted 100-fold to 6 intermediate concentrations, then 80 μL of 6 intermediate concentrations of compounds was taken and added to 320 μL of extracellular fluid, and the mixture was diluted 5-fold to the final test concentration.
4.4.3 The highest test concentration was 40 μM, and the concentrations were respectively 40, 13.3, 4.4, 1.48, 0.494, and 0.165 μM for a total of six concentrations.
4.4.5 The preparation of the compound was completed by the Bravo instrument throughout the dilution process.
Experimental data were analyzed by GraphPad Prism 5.0 software.

Sequence of hERG potassium ion channels (Q12809 whole entry): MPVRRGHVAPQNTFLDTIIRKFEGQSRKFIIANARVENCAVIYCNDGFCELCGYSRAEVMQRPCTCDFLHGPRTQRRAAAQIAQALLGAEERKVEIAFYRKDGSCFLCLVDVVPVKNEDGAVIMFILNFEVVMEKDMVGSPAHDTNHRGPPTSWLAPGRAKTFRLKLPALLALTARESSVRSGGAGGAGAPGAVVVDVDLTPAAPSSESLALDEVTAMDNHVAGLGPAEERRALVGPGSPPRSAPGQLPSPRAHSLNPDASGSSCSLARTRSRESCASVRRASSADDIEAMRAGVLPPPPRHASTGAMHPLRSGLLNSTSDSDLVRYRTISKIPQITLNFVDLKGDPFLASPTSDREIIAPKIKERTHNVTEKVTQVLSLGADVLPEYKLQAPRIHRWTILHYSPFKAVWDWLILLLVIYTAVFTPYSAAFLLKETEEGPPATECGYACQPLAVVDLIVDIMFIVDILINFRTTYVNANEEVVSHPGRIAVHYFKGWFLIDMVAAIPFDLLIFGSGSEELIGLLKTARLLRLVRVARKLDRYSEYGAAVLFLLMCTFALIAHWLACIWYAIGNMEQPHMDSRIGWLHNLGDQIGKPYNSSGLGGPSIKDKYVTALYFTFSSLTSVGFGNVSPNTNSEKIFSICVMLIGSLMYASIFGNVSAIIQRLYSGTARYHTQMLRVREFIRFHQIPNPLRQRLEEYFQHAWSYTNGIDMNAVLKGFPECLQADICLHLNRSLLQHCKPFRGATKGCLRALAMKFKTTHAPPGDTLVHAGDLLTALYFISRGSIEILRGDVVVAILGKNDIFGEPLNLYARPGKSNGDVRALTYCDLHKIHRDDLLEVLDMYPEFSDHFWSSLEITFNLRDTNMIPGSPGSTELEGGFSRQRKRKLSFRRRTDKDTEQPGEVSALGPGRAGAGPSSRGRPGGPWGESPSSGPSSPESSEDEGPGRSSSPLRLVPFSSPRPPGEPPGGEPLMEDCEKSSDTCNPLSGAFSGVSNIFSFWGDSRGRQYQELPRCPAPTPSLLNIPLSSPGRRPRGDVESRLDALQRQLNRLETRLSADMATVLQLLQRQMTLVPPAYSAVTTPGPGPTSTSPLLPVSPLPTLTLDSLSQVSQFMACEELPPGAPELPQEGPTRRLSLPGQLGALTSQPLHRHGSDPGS

| Compound | IC50 [1] [nM] | IC50 [2] [nM] | clearance ([3]; female CD-1 mice) [mL/min/kg] | half-life ([3]; female CD-1 mice) [h] | Vd ([3]; female CD-1 mice) [L/kg] | bioavailability ([3]; female CD-1 mice) [%] | AUC(0-t) ([3]; female CD-1 mice) [µM·h] | Cmax ([3]; female CD-1 mice) [nM] | other results |
| --- | --- | --- | --- | --- | --- | --- | --- | --- | --- |
| COc1ccc(-c2sc(C(=O)N3C4CCC3C(N)C4)cc2-c2ccc(C#N)c(F)c2)cc1F (racemic) [Hydrochloride of compound 2] | 122 | 1.75 | 19.6 | 5.23 | 7.9 | 47.7 | 1.43 | 209 | – |
| COc1ccc(-c2sc(C(=O)N3CCC[C@@H](N)C3)cc2-c2ccc(C#N)c(F)c2)cc1F [Hydrochloride of compound 1] | 82 | 6.88 | 17.8 | 5.59 | 7.66 | 47.2 | 1.56 | 245 | clearance ([3]; male CD-1 mice): 16.7 mL/min/kg; half-life ([3]; male CD-1 mice): 6.13 h; Vd ([3]; male CD-1 mice): 8.33 L/kg; bioavailability ([3]; male CD-1 mice): 53.9%; AUC(0-t) ([3]; male CD-1 mice): 2.24 µM·h; Cmax ([3]; male CD-1 mice): 176 nM |
| COc1ccc(-c2sc(C(=O)N3CCC(N)CC3)cc2-c2ccc(C#N)c(F)c2)cc1F [Hydrochloride of compound 4] | 110 | 30.1 | – | – | – | – | – | – | – |
| COc1ccc(-c2sc(C(=O)N3CCNCC3)cc2-c2ccc(C#N)c(F)c2)cc1F [Hydrochloride of compound 5] | 345 | – | – | – | – | – | – | – | – |
| COc1ccc(-c2sc(C(=O)N3CCCNCC3)cc2-c2ccc(C#N)c(F)c2)cc1F [Hydrochloride of compound 6] | 112 | 37.9 | 18 | 5.37 | 7.76 | 64 | 2.52 | 222 | – |
| COc1ccc(-c2sc(C(=O)N3CCCC[C@@H](N)C3)cc2-c2ccc(C#N)c(F)c2)cc1F [Hydrochloride of compound 8] | 120 | 8.73 | – | – | – | – | – | – | – |
| COc1ccc(-c2sc(C(=O)N3CC4CNCC4C3)cc2-c2ccc(C#N)c(F)c2)cc1F (stereo not shown) [Hydrochloride of compound 9] | 118 | 15.8 | – | – | – | – | – | – | – |
| COc1ccc(-c2sc(C(=O)N3CCC4(CCNC4)CC3)cc2-c2ccc(C#N)c(F)c2)cc1F [Hydrochloride of compound 10] | 192 | 22.4 | – | – | – | – | – | – | – |
| COc1ccc(-c2sc(C(=O)N3CC[C@@H](N)C3)cc2-c2ccc(C#N)c(F)c2)cc1F [Hydrochloride of compound 12] | 393 | – | – | – | – | – | – | – | – |
| COc1ccc(-c2sc(C(=O)NC3CC4CCC3N4)cc2-c2ccc(C#N)c(F)c2)cc1F (stereo not shown) [Hydrochloride of compound 15] | 310 | – | – | – | – | – | – | – | – |
| Cn1cc2cc(-c3sc(C(=O)N4CCC[C@@H](N)C4)cc3-c3ccc(C#N)c(F)c3)ccc2n1 [Hydrochloride of compound 36] | – | 1.17 | 37.3 | 2.01 | 4.71 | 49.6 | 0.971 | 224 | IC50 [4]: 3.44 nM; clearance ([3]; male CD-1 mice): 31.5 mL/min/kg; half-life ([3]; male CD-1 mice): 2.1 h; Vd ([3]; male CD-1 mice): 4.47 L/kg; bioavailability ([3]; male CD-1 mice): 33.9%; AUC(0-t) ([3]; male CD-1 mice): 0.742 µM·h; Cmax ([3]; male CD-1 mice): 148 nM; Mean tumor volume ± SEM (mm^3) (Day 28) ([5]; BID): 53 ± 3 mm^3; TGI (%) ([5]; BID): 109.13%; Mean tumor volume ± SEM (mm^3) (Day 28) ([5]; QD): 87 ± 11 mm^3; TGI (%) ([5]; QD): 99.65% |
| CN[C@@H]1CCCN(C(=O)c2cc(-c3ccc(C#N)c(F)c3)c(-c3ccc4c(c3)nnn4CC(C)(C)O)s2)C1 [Hydrochloride of compound 121] | – | 7.7 | – | – | – | – | – | – | IC50 [4]: 14.3 nM; IC50 [6]: 20500 nM; Mean tumor volume ± SEM (mm^3) (Day 28) ([5]; QD): 75 ± 4 mm^3; TGI (%) ([5]; QD): 103.19% |
